# According to publication PMC6792352, “Limited Chemical Structural Diversity Found to Modulate Thyroid Hormone Receptor in the Tox21 Chemical Library” (Environmental Health Perspectives, 2019):
# Structures can show the parent of a compound that is named as a salt.
# Test: in vitro
# Details: rat, gh3-tre-luc cells, AC50 (uM) modified / 1000
row,SMILES,CC50 at 24 h
1,Cc1ccc(N)cc1[N+](=O)[O-] [4-Methyl-3-nitroaniline],> 90 µM
2,O=[N+]([O-])c1ccc2c(c1)Cc1ccccc1-2 [2-Nitrofluorene],> 90 µM
3,CCN(CC)CCOC(=O)C(O)(c1ccccc1)c1ccccc1 [Benactyzine],> 50 µM
4,CCCCCCOC(=O)CC(CC(=O)OCCCCCC)(OC(=O)CCC)C(=O)OCCCCCC [Butyryl trihexyl citrate],> 90 µM
5,CCCC(C)C(=O)O (stereo not shown) [2-Methylpentanoic acid],> 90 µM
6,CC(C)=C[C@@H]1[C@@H](C(=O)OCc2coc(Cc3ccccc3)c2)C1(C)C [Bioresmethrin],> 90 µM
7,O=C(CCCN1CCN2CCCC2C1)c1ccc(F)cc1 (stereo not shown) [Azabuperone],> 50 µM
8,CC(C)N1C(=O)c2ccccc2C1=O [N-Isopropylphthalimide],> 90 µM
9,C#CCC(Cc1cnc2nc(N)nc(N)c2n1)c1ccc(C(=O)N[C@@H](CCC(=O)O)C(=O)O)cc1 (stereo partly shown) [Pralatrexate],> 50 µM
10,CCCCOCCOCCOCCCC [Diethylene glycol dibutyl ether],> 90 µM
11,CC1(C)S[C@@H]2[C@H](NC(=O)[C@H](NC(=O)N3CCNC3=O)c3ccccc3)C(=O)N2[C@H]1C(=O)O [Azlocillin sodium],> 20 µM
12,"CC(C)C(OC(=O)c1ccccc1)C(C)(C)COC(=O)c1ccccc1 (stereo not shown) [2,2,4-Trimethylpentane-1,3-diyl dibenzoate]",76 µM
13,Cc1nc2ccccc2n1Cc1ccc(Cl)cc1 [Chlormidazole],> 50 µM
14,CCNc1nc(Cl)nc(NC(C)C)n1 [Atrazine],> 90 µM
15,C[N+](C)(C)Cc1ccccc1 [Benzyltrimethylammonium chloride],> 90 µM
16,CCCC(C)CC (stereo not shown) [3-Methylhexane],> 90 µM
17,COC(=O)c1cc(Cl)ccc1[N+](=O)[O-] [Methyl 5-chloro-2-nitrobenzoate],> 90 µM
18,NNC(=O)c1ccccc1 [Benzoyl hydrazine],> 90 µM
19,CCCC(CC)c1ccccc1 (stereo not shown) [3-Phenylhexane],> 90 µM
20,CO[Si](OC)(OC)c1ccccc1 [Trimethoxyphenylsilane],> 90 µM
21,CCC1(c2ccccc2)C(=O)NCNC1=O [Primidone],> 90 µM
22,Oc1ccc([C@@H]2CNCc3c2ccc(O)c3O)cc1O [Zelandopam],39.3 µM
23,CCCCCCCCCC(=O)NO [Decanohydroxamic acid],> 50 µM
24,CCCCC(CC)COC(=O)c1ccc(C(=O)OCC(CC)CCCC)cc1 (stereo not shown) [Bis(2-ethylhexyl) terephthalate],> 90 µM
25,"CC(=O)c1ccc(C(C)=O)cc1 [1,1-(1,4-Phenylene)bis-ethanone]",> 90 µM
26,CC(=O)Nc1ccc(N)cc1 [4-Aminoacetanilide],> 90 µM
27,CC(=O)Nc1ccc(OCCOCCOc2ccc(NC(C)=O)cc2)cc1 [Diamfenetide],> 50 µM

row,SMILES,CC50 at 24 h
1,C[C@@H]1O[C@@H](O[C@@H]2[C@@H](O)[C@H](OCCc3ccc(O)c(O)c3)O[C@H](CO[C@@H]3O[C@H](CO)[C@@H](O)[C@H](O)[C@H]3O)[C@H]2OC(=O)/C=C/c2ccc(O)c(O)c2)[C@H](O)[C@H](O)[C@H]1O [Echinacoside],> 90 µM
2,O=C1CCCN1 [2-Pyrrolidinone],> 90 µM
3,CCN(CC)CC(=O)Nc1c(C)cc(C)cc1C [Trimecaine monohydrochloride],> 50 µM
4,CC(=O)NC[C@H]1CN(c2ccc(N3CCOCC3)c(F)c2)C(=O)O1 [Linezolid],> 50 µM
5,CO[C@H]1/C=C/O[C@@]2(C)Oc3c(C)c(O)c4c(O)c(c(/C=N/N5CCN(C6CCCC6)CC5)c(O)c4c3C2=O)NC(=O)/C(C)=C\C=C\[C@H](C)[C@H](O)[C@@H](C)[C@@H](O)[C@@H](C)[C@H](OC(C)=O)[C@@H]1C [Rifapentine],22.8 µM
6,C=CCOC(=O)CCCCCCCC [Allyl nonanoate],> 90 µM
7,COc1cc(C(C)=O)ccc1OCCCN1CCC(c2noc3cc(F)ccc23)CC1 [Iloperidone],15.2 µM
8,"OCCCO [1,3-Propanediol]",> 200 µM
9,"COc1ccc(OC)c(NC(=O)CC(C)=O)c1 [N-(2,5-Dimethoxyphenyl)-3-oxobutanamide]",> 90 µM
10,CN1CCN(C2Cc3ccccc3Sc3ccc(Cl)cc32)CC1 (stereo not shown) [Octoclothepine maleate],7.55 µM
11,C=C(C)C(=O)OCC(CC)CCCC (stereo not shown) [2-Ethylhexyl methacrylate],> 90 µM
12,Cc1occc(=O)c1OC(=O)C(C)C [Maltol isobutyrate],> 90 µM
13,CCCC=O [Butyraldehyde],> 90 µM
14,C[C@]12CCC(=O)C=C1CC[C@@H]1[C@@H]2[C@@H](O)C[C@@]2(C)[C@H]1CC[C@]2(O)C(=O)COC(=O)CCC(=O)O [Hydrocortisone 21-hemisuccinate sodium salt],> 50 µM
15,[O-][n+]1cccc(CO)c1 [Mepiroxol],> 50 µM
16,CNC(=O)C[C@@H](N)C(=O)N[C@@H](C(=O)N[C@@H]1C(=O)N2[C@@H]1SC(C)(C)[C@@H]2C(=O)O)c1ccc(O)cc1 [Aspoxicillin],> 50 µM
17,CCOC(=O)c1ccc(O)cc1 [Ethylparaben],> 90 µM
18,"Nn1cnnc1 [4-Amino-1,2,4-triazole]",> 90 µM
19,CC(=O)C(=O)O [Pyruvic acid],> 90 µM
20,O=C(OOC(=O)c1ccccc1)c1ccccc1 [Benzoyl peroxide],> 50 µM
21,CCN(CC)CCNC(=O)COc1ccc(OC)cc1 [Mefexamide hydrochloride],> 50 µM
22,Cc1ccc(N)nc1 [5-Methylpyridin-2-amine],> 90 µM
23,CNCc1ccccc1 [N-Methylbenzylamine hydrochloride],> 50 µM
24,Cc1c(F)c(F)c(COC(=O)[C@H]2[C@@H](/C=C(\Cl)C(F)(F)F)C2(C)C)c(F)c1F (racemic) [Tefluthrin],> 90 µM
25,C#C[C@]1(OC(=O)CCCCCC)CC[C@H]2[C@@H]3CCC4=CC(=O)CC[C@@H]4[C@H]3CC[C@@]21C [Noristerat],10.7 µM
26,CC/C=C\C/C=C\C/C=C\CCCCCCCC(=O)OCC [Ethyl linolenate],> 90 µM
27,NCCC(O)(P(=O)(O)O)P(=O)(O)O [Pamidronic acid],> 50 µM

row,SMILES,CC50 at 24 h
1,"C=C1CC[C@H](O)C/C1=C/C=C1\CCC[C@]2(C)[C@@H]([C@H](C)CC[C@@H](O)C(C)(C)O)CC[C@@H]12 [24R,25-Dihydroxyvitamin D3]",23.4 µM
2,CCC(C(=O)OCCOCCN(CC)CC)c1ccccc1 (stereo not shown) [Butamirate citrate],> 50 µM
3,CC(C1CC1)C(O)(Cn1cncn1)c1ccc(Cl)cc1 (stereo not shown) [Cyproconazole],> 90 µM
4,CCC(=O)Nc1ccc(O)cc1 [Parapropamol],> 50 µM
5,CN(C)CCOCCO [2-[2-(Dimethylamino)ethoxy]ethanol],> 90 µM
6,"C[Si](C)(CCCN)O[Si](C)(C)CCCN [3,3'-(1,1,3,3-Tetramethyldisiloxane-1,3-diyl)dipropan-1-amine]",> 90 µM
7,O=C(O)CCC(=O)C(=O)O [alpha-Ketoglutaric acid],> 90 µM
8,CCCCCCCCCCO [1-Decanol],> 90 µM
9,CCCCCCCCCCCCCCC(Br)C(=O)O (stereo not shown) [2-Bromohexadecanoic acid],> 90 µM
10,CSc1nc2cc(Cl)c(Oc3cccc(Cl)c3Cl)cc2[nH]1 [Triclabendazole],28.5 µM
11,NCC(O)c1cccc(O)c1 (stereo not shown) [Norfenefrine hydrochloride],> 50 µM
12,"CC(=O)CC(C)=O [2,4-Pentanedione]",> 100 µM
13,"O=C(O)CCCOc1ccc(Cl)cc1Cl [2,4-DB-sodium]",> 90 µM
14,CCCN [Propylammonium nitrate],> 90 µM
15,NC(=O)NS(=O)(=O)c1ccc(N)cc1 [Sulfacarbamide],> 50 µM
16,C=C(C)C(=O)OCCN(C)C [2-(Dimethylamino)ethyl methacrylate],> 90 µM
17,CCN1CCCC1CNC(=O)c1cc(S(=O)(=O)CC)ccc1OC (stereo not shown) [Sultopride hydrochloride],> 50 µM
18,CN(Cc1ccc(C(C)(C)C)cc1)Cc1cccc2ccccc12 [Butenafine],27.3 µM
19,"CCC(C)(C)c1cc(O)c(C(C)(C)CC)cc1O [2,5-Bis(2-methylbutan-2-yl)benzene-1,4-diol]",53.8 µM
20,CCCCCCCCCCCSCC(=O)O [3-Thiatetradecanoic acid],50.2 µM
21,Cc1ccc(S(=O)(=O)NC(=O)NC2CCCCCCC2)cc1 [Glyoctamide],> 50 µM
22,N#Cc1ccccc1O [2-Hydroxybenzonitrile],> 90 µM
23,C=CCCCCCCCCOC(C)=O [9-Decenyl acetate],> 90 µM
24,CCCCCCCCNC [N-Methyloctan-1-amine],> 90 µM
25,Cc1cccc2sc(N)nc12 [2-Amino-4-methylbenzothiazole],> 90 µM

# Same assay, conditions: rat, gh3-tre-luc cells, AC50 (uM) modified / 1000, Tox21_110001=Tox21_112016; viability, 1 nM T3 present, 24 h
row,SMILES,CC50 at 24 h
1,CC(C)(C)NCC(O)c1cc(Cl)c(N)c(Cl)c1 (stereo not shown) [Clenbuterol],31.8 µM

# Same assay, conditions: rat, gh3-tre-luc cells, AC50 (uM) modified / 1000, Tox21_110001=Tox21_112772; viability, 1 nM T3 present, 24 h
row,SMILES,CC50 at 24 h
1,C[C@]12Cc3nonc3C[C@@H]1CC[C@@H]1[C@@H]2CC[C@@]2(C)[C@H]1CC[C@]2(C)O [Furazabol],25.2 µM

# Same assay, conditions: rat, gh3-tre-luc cells, AC50 (uM) modified / 1000, Tox21_110001=Tox21_200981; viability, 1 nM T3 present, 24 h
row,SMILES,CC50 at 24 h
1,Clc1ccc2ccccc2c1 [2-Chloronaphthalene],> 90 µM

# Same assay, conditions: rat, gh3-tre-luc cells, AC50 (uM) modified / 1000, Tox21_110001=Tox21_202592; viability, 1 nM T3 present, 24 h
row,SMILES,CC50 at 24 h
1,Cc1ccc2cc3c(ccc4ccccc43)c3c2c1CC3 [3-Methylcholanthrene],> 50 µM

# Same assay, conditions: rat, gh3-tre-luc cells, AC50 (uM) modified / 1000, Tox21_110001=Tox21_301548; viability, 1 nM T3 present, 24 h
row,SMILES,CC50 at 24 h
1,CCCCCCCc1ccc(O)cc1 [4-Heptylphenol],> 90 µM

# Same assay, conditions: rat, gh3-tre-luc cells, AC50 (uM) modified / 1000, Tox21_110001=Tox21_302015; viability, 1 nM T3 present, 24 h
row,SMILES,CC50 at 24 h
1,CCCCNP(N)(N)=S [N-Butylphosphorothioic triamide],> 90 µM
